# From article PMC5407626 (PLoS ONE, 2017)
# pEC50: −log10 of the molar value.
# How the values were obtained:
# recombinant mouse BCO1 = molecular target: T1, recombinant mouse BCO1 (Mus musculus, UniProt Q9JJS6); assay: In vitro inhibition of recombinant mouse BCO1 activity; assay type: biochemical; conditions: inhibitor 0–200 μM
# T1 construct: His-tag; made in house; host or cells: E. coli
# T1 sequence (Q9JJS6 1-566): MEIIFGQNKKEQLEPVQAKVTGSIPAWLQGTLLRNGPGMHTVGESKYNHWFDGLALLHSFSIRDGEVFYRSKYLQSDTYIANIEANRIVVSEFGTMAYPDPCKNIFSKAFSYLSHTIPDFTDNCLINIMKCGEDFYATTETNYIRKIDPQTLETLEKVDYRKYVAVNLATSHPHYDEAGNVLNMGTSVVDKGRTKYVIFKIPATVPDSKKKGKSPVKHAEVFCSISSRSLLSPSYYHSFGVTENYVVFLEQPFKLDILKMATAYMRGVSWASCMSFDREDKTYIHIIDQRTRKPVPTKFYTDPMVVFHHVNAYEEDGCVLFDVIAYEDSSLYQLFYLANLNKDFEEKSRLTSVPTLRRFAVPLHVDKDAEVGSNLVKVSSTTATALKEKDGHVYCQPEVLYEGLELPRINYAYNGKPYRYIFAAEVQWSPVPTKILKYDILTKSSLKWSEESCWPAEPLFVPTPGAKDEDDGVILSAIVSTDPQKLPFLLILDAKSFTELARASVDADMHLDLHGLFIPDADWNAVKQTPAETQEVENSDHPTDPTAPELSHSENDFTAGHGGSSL
# Description: Recombinant His-tag mouse BCO1 was produced in E.coli and purified using Talon CellThru (Clontech Labs, Inc., Mountain View, CA) resin as described previously. β-carotene was delivered in 1% octylthioglucoside. […] All other inhibitors were delivered in ethanol. […] The final concentration of ethanol in all samples was 1%. […] Data plotted as means±standard deviation; n = 3; […] Analysis was done in C57BL/6 wt (3 animals) and Bco1^-/- mice (13 animals).
# RARβ [1] = molecular target: T2, RARβ (Homo sapiens, UniProt P10826); assay: GeneBLAzer RAR-beta DA assay, agonist mode; assay type: cell-based
# T2 sequence (P10826 183-417 limits assumed): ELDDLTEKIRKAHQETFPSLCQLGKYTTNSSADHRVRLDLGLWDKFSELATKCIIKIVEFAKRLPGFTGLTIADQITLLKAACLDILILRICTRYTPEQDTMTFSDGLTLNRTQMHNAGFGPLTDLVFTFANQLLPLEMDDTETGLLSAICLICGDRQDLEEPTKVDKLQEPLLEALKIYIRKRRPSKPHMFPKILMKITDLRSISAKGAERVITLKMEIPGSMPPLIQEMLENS
# Experimental: (§1) The potency of agonists and antagonists was measured by GeneBLAzer RAR-beta DA Assay Kit (ThermoFisher Scientific) according to the manufacturer’s recommendations.
# The phenylretinamides may have the ability to modulate the expression of proteins and induce cell apoptosis via RAR-dependent and -independent pathways. […] Human retina-derived cells in culture show differences in expression of RAR receptors. […] Clonetics HRPE primary human cells specifically express only RARβ [50].
# RARβ [2] = molecular target: T2, RARβ; assay: GeneBLAzer RAR-beta DA assay, antagonist mode (competition with at-RA); assay type: cell-based; conditions: at-RA 0.5–1.5 nM; tested 10^−5 to 10^−9 M
# Experimental: as §1
# The phenylretinamides may have the ability to modulate the expression of proteins and induce cell apoptosis via RAR-dependent and -independent pathways. […] Additionally, apoptosis of neuroblastoma cell lines was blocked by two retinoic acid receptor (RAR)-β/γ-specific antagonists, but not by a RARα-specific antagonist. […] However, in this case the specific RARα-specific antagonist AGN194301 could block fenretinde-induced apoptosis. […] Human retina-derived cells in culture show differences in expression of RAR receptors. […] Clonetics HRPE primary human cells specifically express only RARβ [50].
# Fluorescence was measured at excitation (ex) 409 nm/emission (em) 460 and at ex 409nm/em 530 nm and the ratio was determined and plotted against a range of concentrations (10^−5 to 10^−9 M) of the tested compounds.
# RBP4 = RBP4 (Homo sapiens, UniProt P02753); assay: Binding to RBP4; conditions: data not shown
smiles,measurement,setting,value
"CCOc1ccc(NC(=O)/C=C(C)/C=C/C=C(C)/C=C/C2=C(C)CCCC2(C)C)cc1 [EPR, N-[4-ethoxyphenyl]retinamide]",effect on BCO1 activity,recombinant mouse BCO1,does not inhibit BCO1 activity
same,pEC50,RARβ [1],5.36
same,competition with all-trans-retinoic acid,RARβ [2],cannot compete
same,RBP4 binding compared with MPR,RBP4,less potent inhibitor
